In US8282910B2, “Composition for skin or hair” (Shiseido Company Ltd., priority 2007, dated 2012):

Columns and labels:
[1] = background statement; cited from earlier work
[2] = Solubility of poorly-soluble UV absorbers in oils: dibenzoylmethane derivative (Test Example 3); assay type: physicochemical; conditions: 4-tert-butyl-4′-methoxydibenzoylmethane dissolved in the oil; supernatant after crystal nuclei, 0° C
Protocol: (§1) Each of triazine derivative and dibenzoylmethane derivative was warmed and dissolved into each oil shown in Table 2, and then each mixture was cooled to room temperature. After adding crystal nuclei, they were cooled at 0° C. A saturation solubility of each supernatant fluid was measured.
4-tert-butyl-4′-methoxydibenzoylmethane was used as a dibenzoylmethane derivative (i.e. component (a)).

[3] = Solubility of poorly-soluble UV absorbers in oils: triazine derivative (Test Example 3); assay type: physicochemical; conditions: 2,4-bis{[4-(2-ethylhexyloxy)-2-hydroxy]phenyl}-6-(4-methoxyphenyl) 1,3,5-triazine dissolved in the oil; supernatant after crystal nuclei, 0° C
Protocol: as §1
2,4-bis{[4-(2-ethylhexyloxy)-2-hydroxy]phenyl}-6-(4-methoxyphenyl) 1,3,5-triazine was used as triazine derivative.

Saturation solubility of dibenzoylmethane derivative [2]	Saturation solubility of triazine derivative [3]	SMILES	absorption maximum [1]
		COc1ccc(C(=O)CC(=O)c2ccc(C(C)(C)C)cc2)cc1 [4-tert-butyl-4′-methoxydibenzoylmethane]	around 360 nm
6%	4%	CCCCCCCC(=O)OCC(COC(=O)CCCCCCC)(COC(=O)CCCCCCC)COC(=O)CCCCCCC [Pentaerithrityl tetraoctanoate]	
